In patent US20160002204A1 (Board of Regents, The University of Texas System, priority 2014, published 2016):

Legend:
[1] = molecular target: T1, GLS1 (purified recombinant human GAC) (Homo sapiens, UniProt O94925); test: GLS1 enzymatic activity assay (dual-coupled, Amplex UltraRed/resorufin); type: biochemical
T1 sequence (O94925 55-598 isoform O94925-3 limits assumed): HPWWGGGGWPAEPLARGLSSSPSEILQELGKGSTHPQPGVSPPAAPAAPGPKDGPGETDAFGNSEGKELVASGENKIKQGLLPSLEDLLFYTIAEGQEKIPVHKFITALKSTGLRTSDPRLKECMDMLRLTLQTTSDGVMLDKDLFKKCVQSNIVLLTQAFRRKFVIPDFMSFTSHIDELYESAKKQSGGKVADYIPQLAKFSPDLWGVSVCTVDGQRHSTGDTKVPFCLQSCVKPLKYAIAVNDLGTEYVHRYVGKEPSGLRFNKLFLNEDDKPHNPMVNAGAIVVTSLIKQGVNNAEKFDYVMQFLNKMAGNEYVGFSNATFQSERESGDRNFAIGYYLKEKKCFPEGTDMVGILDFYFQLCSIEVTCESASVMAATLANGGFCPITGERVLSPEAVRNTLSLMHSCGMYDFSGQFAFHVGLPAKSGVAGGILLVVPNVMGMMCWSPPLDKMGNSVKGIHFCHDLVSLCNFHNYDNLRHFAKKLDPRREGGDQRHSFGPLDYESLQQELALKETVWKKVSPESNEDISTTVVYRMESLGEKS
Method in brief: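 GAC activity measured by coupling glutamate to glutamate oxidase and HRP, generating resorufin from Amplex UltraRed. Enzyme (2 nM) preincubated with 50 mM potassium phosphate 10 min at room temperature, then inhibitor 10 min; 1 mM glutamine substrate, 1% DMSO. Fluorescence 530/590 nm, kinetic or 20-min endpoint; IC50 from four-parameter logistic fit.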

A549 cells = test: A549 proliferation (viability) assay, Cell Titer Fluor, 72 hours; type: cell-based; conditions: Homo sapiens
Method in brief: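 A549 cells seeded at 1000 cells/well, left 24 h, then exposed to compound for 72 h at 37 °C, 5% CO2, final DMSO 0.5% (v/v). Viability read by Cell Titer Fluor fluorescence; EC50 from four-parameter logistic fit.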

IC50 [1] | EC50 (A549 cells) | Structure (SMILES)
100 to 500 nM | 100 to 500 nM | O=C(Nc1ccn(CCC(F)Cn2cc(C(=O)NCc3cccc(C(F)(F)F)n3)nn2)c(=O)c1F)OC1CCC1 (stereo not drawn) [Example 397, cyclobutyl N-(3-fluoro-1-{3-fluoro-4-[4-({[6-(trifluoromethyl)pyridin-2-yl]methyl}carbamoyl)-1H-1,2,3-triazol-1-yl]butyl}-2-oxo-1,2-dihydropyridin-4-yl)carbamate]
< 100 nM | < 100 nM | CC(C)(C)OC(=O)N1CCC(CC(=O)Nc2ccn(CCC(F)Cn3cc(C(=O)NCc4cccc(OC(F)(F)F)c4)nn3)c(=O)c2)CC1 (stereo not drawn) [Example 219, tert-butyl 4-{[(1-{3-fluoro-4-[4-({[3-(trifluoromethoxy)phenyl]methyl}carbamoyl)-1H-1,2,3-triazol-1-yl]butyl}-2-oxo-1,2-dihydropyridin-4-yl)carbamoyl]methyl}piperidine-1-carboxylate]
< 100 nM | < 100 nM | O=C(CN1CCC(F)(F)CC1)Nc1ccn(CCC(F)Cn2cc(C(=O)NCc3cc(C(F)(F)F)ccn3)nn2)c(=O)c1F (stereo not drawn) [Example 416, 1-(4-{4-[2-(4,4-difluoropiperidin-1-yl)acetamido]-3-fluoro-2-oxo-1,2-dihydropyridin-1-yl}-2-fluorobutyl)-N-{[4-(trifluoromethyl)pyridin-2-yl]methyl}-1H-1,2,3-triazole-4-carboxamide]
100 to 500 nM | 500 to 5000 nM | O=C(Cc1ccccc1)Nc1cnn(CCCCn2cc(C(=O)NCc3cccc(OC(F)(F)F)c3)nn2)c(=O)c1 [Example 172, 1-{4-[6-oxo-4-(2-phenylacetamido)-1,6-dihydropyridazin-1-yl]butyl}-N-{[3-(trifluoromethoxy)phenyl]methyl}-1H-1,2,3-triazole-4-carboxamide]
< 100 nM | 100 to 500 nM | O=C(NCc1cccc(OC(F)(F)F)c1)c1cn(CC(F)CCn2ccc(COc3ccc(F)cc3F)cc2=O)nn1 (stereo not drawn) [Example 478, 1-{4-[4-(2,4-difluorophenoxymethyl)-2-oxo-1,2-dihydropyridin-1-yl]-2-fluorobutyl}-N-{[3-(trifluoromethoxy)phenyl]methyl}-1H-1,2,3-triazole-4-carboxamide]
< 100 nM | 100 to 500 nM | O=C(CN1CCN(C(=O)CC(F)(F)F)CC1)Nc1ccn(CCC(F)Cn2cc(C(=O)NCc3cccc(OC(F)(F)F)c3)nn2)c(=O)c1F (stereo not drawn) [Example 308, 1-[2-fluoro-4-(3-fluoro-2-oxo-4-{2-[4-(3,3,3-trifluoropropanoyl)piperazin-1-yl]acetamido}-1,2-dihydropyridin-1-yl)butyl]-N-{[3-(trifluoromethoxy)phenyl]methyl}-1H-1,2,3-triazole-4-carboxamide]
< 100 nM | 500 to 5000 nM | COCCOc1cccc(CC(=O)Nc2ccn(CCC(F)Cn3cc(C(=O)NCc4cccc(OC(F)(F)F)c4)nn3)c(=O)c2)c1 (stereo not drawn) [Example 185, 1-[2-fluoro-4-(4-{2-[3-(2-methoxyethoxy)phenyl]acetamido}-2-oxo-1,2-dihydropyridin-1-yl)butyl]-N-{[3-(trifluoromethoxy)phenyl]methyl}-1H-1,2,3-triazole-4-carboxamide]
< 100 nM | < 100 nM | C[C@H]1CCN(C(=O)C(=O)Nc2ccn(CCC(F)Cn3cc(C(=O)NCc4cc(OC(F)(F)F)ccc4F)nn3)c(=O)c2F)C1 (stereo partly drawn) [Example 432, 1-[2-fluoro-4-(3-fluoro-4-{2-[(3S)-3-methylpyrrolidin-1-yl]-2-oxoacetamido}-2-oxo-1,2-dihydropyridin-1-yl)butyl]-N-{[2-fluoro-5-(trifluoromethoxy)phenyl]methyl}-1H-1,2,3-triazole-4-carboxamide]
< 100 nM | < 100 nM | CC(C)(C)OC(=O)N1CCC(CC(=O)Nc2ccn(CCC(F)Cn3cc(C(=O)NCc4cccc(OC(F)(F)F)c4)nn3)c(=O)c2F)CC1 (stereo not drawn) [Example 289, tert-butyl 4-{[(3-fluoro-1-{3-fluoro-4-[4-({[3-(trifluoro-methoxy)phenyl]methyl}carbamoyl)-1H-1,2,3-triazol-1-yl]butyl}-2-oxo-1,2-dihydropyridin-4-yl)carbamoyl]methyl}piperidine-1-carboxylate]
